Experimental data as given in patent publication US9814801B2, “Thiol-ene polymerization with vinylesters and vinylcarbonate” (Depuy Synthes Products, Inc., priority 2011, dated 2017).

Experiments:
fibroblast cell culture = experiment: Monomer cytotoxicity, Alamar Blue Assay in fibroblast cell culture; conditions: monomer concentration at which resorufin production was reduced to 50% of control, n=3
Text: This assay incorporated a fluorometric/colormetric growth indicator based on detection of metabolic activity.

in vitro = experiment: in vitro
Protocol: (§1) The effects of each of vinyl ester 4V, acrylate 4A, and meth-acrylate 4M on osteoblastic MC3T3-E1 cells in vitro was tested by the MTT assay method. The osteoblastic MC3T3-E1 cells were cultured for five days in the presence of each of vinyl ester (4V), acrylate (4A), and meth-acrylate (4M).
(§2) Cytotoxicity of the newly synthesized monomers and the reference substances together with the thiols and photoinitiator used was examined in osteoblast cell culture by using an Alamar Blue Assay. This assay incorporates a fluorometric/colormetric growth indicator based on the detection of metabolic activity. 1M solutions of the monomers, thiols, and photoinitiator in DMSO (HYBRI-MAX®, Sigma) were prepared. […] For experiments, cells [osteoblasts taken of the strain C57BL/6 of mus musculus (ATCC Catalog No. CRL-2593, MC3T3-E1, Subclone 4)] were cultured in 100 μl DMEM Medium supplemented with 10% FCS, 100 U/ml Penicillin, and 100 μg/ml Streptomycin, in 96-well plates at a density of 6.4×10^3 cells well^−1 for 24 hours in humidified air (95% relative humidity) with 5% CO2 at 37° C. The next day, the cells were treated with 100 μL of the different concentrations of the monomers for 5 days in triplicates. 10 μL of resazurin were added and the cells incubated for 4 hours at 37° C. The fluorescence intensity was measured for excitation at 530 nm and emission at 580 nm and compared to untreated cells (cells+medium). As control groups cells treated with 1% DMSO-solution, a blank value, and PBS-puffer were used.

[1] = Photoreactivity by photo-DSC: time to reach the maximum of the polymerization heat; type: physicochemical
Protocol: The compositions which are embodiments of the present invention were compared to acrylate and methacrylate based polymer systems as comparative examples.
The reactivity towards photopolymerization was tested with the help of photo-DSC (differential scanning calorimetry). The measurements were carried out using 2 wt % of 2-hydroxy-1-[4-(2-hydroxyethoxy)phenyl]-2-methyl-1-propanone (Irgacure 2959, Ciba SC) as photoinitiator.

[2] = tested on: osteoblastic MC3T3-E1 cells; experiment: in vitro; conditions: read-out: LC50; MC3T3-E1 cells cultured five days with monomer; n=3
Protocol: as §1, §2

[3] = PEG600 monomer series, 0% TMP700
[4] = PEG600 monomer series, 10% TMP700
[5] = PEG600 monomer series, 20% TMP700
[6] = PEG600 monomer series, 40% TMP700
[7] = Butanediol monomer series, 0% TMP700
[8] = Butanediol monomer series, 0% TT
[9] = Butanediol monomer series, 10% TMP700
[10] = Butanediol monomer series, 10% TT
[11] = Butanediol monomer series, 20% TMP700
[12] = Butanediol monomer series, 20% TT
[13] = Butanediol monomer series, 40% TMP700
[14] = Butanediol monomer series, 40% TT
[15] = PEG200 monomer series, 0% TMP700
[16] = PEG200 monomer series, 10% TMP700
[17] = PEG200 monomer series, 20% TMP700
[18] = PEG200 monomer series, 40% TMP700

Molecule	IC50 [mM] (TC50 values of various monomers) (fibroblast cell culture)	time to reach the maximum of the polymerization heat [1, 7] [s]	time to reach the maximum of the polymerization heat [1, 8] [s]	time to reach the maximum of the polymerization heat [1, 9] [s]	time to reach the maximum of the polymerization heat [1, 10] [s]	time to reach the maximum of the polymerization heat [1, 11] [s]	time to reach the maximum of the polymerization heat [1, 12] [s]	time to reach the maximum of the polymerization heat [1, 13] [s]	time to reach the maximum of the polymerization heat [1, 14] [s]	also measured
O=C(CCS)OCC(COC(=O)CCS)(COC(=O)CCS)COC(=O)CCS [PTM, pentaerythritol tetra(3-mercaptopropionate)]	10									CC50 at 5 days (in vitro; C57BL/6, mouse, osteoblastic MC3T3-E1 cells (Subclone 4, ATCC CRL-2593)): > 10 mM
C=COC(=O)COCCOCCOCC(=O)OC=C [TUVE, ω,ω′-3,6,9-trioxaundecanedioic acid divinyl ester]	2.5									
Poly(ethylene glycol) dimethacrylate, MG 600 [PEG600 Methacrylate]										time to reach the maximum of the polymerization heat [1, 3]: 10.5 s; time to reach the maximum of the polymerization heat ([1]; PEG600 monomer series, 0% TT): 10.5 s; time to reach the maximum of the polymerization heat [1, 4]: 27.0 s; time to reach the maximum of the polymerization heat ([1]; PEG600 monomer series, 10% TT): 26.3 s; time to reach the maximum of the polymerization heat [1, 5]: 31.2 s; time to reach the maximum of the polymerization heat ([1]; PEG600 monomer series, 20% TT): 31.2 s; time to reach the maximum of the polymerization heat [1, 6]: 30.6 s; time to reach the maximum of the polymerization heat ([1]; PEG600 monomer series, 40% TT): 24.9 s
C=CC(=O)OCCCCOC(=O)C=C [Butanediol Acrylate, 1,4-Butanediol-di-acrylate]		2.7	2.7	2.9	2.5	3.5	2.8	3.5	2.7	CC50 [2]: < 0.16 mM
C=C(C)C(=O)OCCOCCOCCOCCOC(=O)C(=C)C [TTEGDMA, Tetra(ethylene glycol) dimethacrylate]	<0.16									time to reach the maximum of the polymerization heat [1, 15]: 12.6 s; time to reach the maximum of the polymerization heat ([1]; PEG200 monomer series, 0% TT): 12.6 s; time to reach the maximum of the polymerization heat [1, 16]: 56.0 s; time to reach the maximum of the polymerization heat ([1]; PEG200 monomer series, 10% TT): 51.5 s; time to reach the maximum of the polymerization heat [1, 17]: 55.1 s; time to reach the maximum of the polymerization heat ([1]; PEG200 monomer series, 20% TT): 58.3 s; time to reach the maximum of the polymerization heat [1, 18]: 46.9 s; time to reach the maximum of the polymerization heat ([1]; PEG200 monomer series, 40% TT): 54.0 s
C=COC(=O)OCCCCOC(=O)OC=C [Butanediol Vinyl carbonate, 1,4-butanediol divinyl carbonate]		3.3	3.3	6.1	7.1	4.4	3.0	2.1	2.4	
C=CC(=O)OCCOCCOCCOCCOC(=O)C=C [TTEGDAc, Tetra(ethylene glycol) diacrylate]	<0.16									time to reach the maximum of the polymerization heat [1, 15]: 2.6 s; time to reach the maximum of the polymerization heat ([1]; PEG200 monomer series, 0% TT): 2.6 s; time to reach the maximum of the polymerization heat [1, 16]: 3.6 s; time to reach the maximum of the polymerization heat ([1]; PEG200 monomer series, 10% TT): 3.5 s; time to reach the maximum of the polymerization heat [1, 17]: 3.6 s; time to reach the maximum of the polymerization heat ([1]; PEG200 monomer series, 20% TT): 3.3 s; time to reach the maximum of the polymerization heat [1, 18]: 3.4 s; time to reach the maximum of the polymerization heat ([1]; PEG200 monomer series, 40% TT): 3.3 s
C=C(C)C(=O)OCCCCOC(=O)C(=C)C [Butanediol Methacrylate, 1,4-Butanediol di-methacrylat]		28.6	28.6	90.2	87.6	85.4	83.8	75.0	55.0	CC50 (in vitro): 1.3 mM
C=COC(=O)CCCCC(=O)OC=C [AVE, adipic acid divinyl ester]	10	4.9	4.9	8.4	7.7	2.9	5.8	2.1	2.1	
Poly(ethylene glycol) diacrylate, MG 600 [PEG600 Acrylate]										time to reach the maximum of the polymerization heat [1, 3]: 3.2 s; time to reach the maximum of the polymerization heat ([1]; PEG600 monomer series, 0% TT): 3.2 s; time to reach the maximum of the polymerization heat [1, 4]: 3.8 s; time to reach the maximum of the polymerization heat ([1]; PEG600 monomer series, 10% TT): 3.2 s; time to reach the maximum of the polymerization heat [1, 5]: 3.7 s; time to reach the maximum of the polymerization heat ([1]; PEG600 monomer series, 20% TT): 3.0 s; time to reach the maximum of the polymerization heat [1, 6]: 3.2 s; time to reach the maximum of the polymerization heat ([1]; PEG600 monomer series, 40% TT): 3.0 s
